Like-named read-outs stand apart in the source and are kept apart here. Marks after values point to notes of the source that are not given here.
Key:
[1] = system: Colon 6044 (human colon carcinoma); test: Antitumour activity in Co6044 after oral administration, different dosing schedules (Table 4); format: in vivo, NCR: nu/nu female mice; conditions: for BWC / Toxic deaths (d) / Optimum T/C (on day): Oral; for Toxic deaths (d): 7 mice
Description: Antitumour Activity of Elaidic Acid (5′)-Gemcitabine Ester in Co6044 after Oral Administration

[2] = Maximum tolerated dose, every third day repeated five times; format: in vivo, mice; conditions: administered every third day
Description: This is shown below by the experiments presented in table 1 and table 2 using different mice strains and also different human colon xenografts.

[3] = system: Colon 5776 (human colon carcinoma); test: Antitumour activity in human colon xenograft Co5776, IP treatment; conditions: for Toxic deaths (d): D8, 11, 14, 17, 20, 8 mice; for antitumour activity in terms of reductions in tumour growth: gemcitabine 120 mg/kg, elaidic acid (5′)-gemcitabine ester 40 mg/kg, FIG. 1
Description: (§1) Human colon cancer Co5776 was inserted to Ncr:nu/nu female mice subcutaneously, and treatment started when tumours reached a mean volume of 100 mm^3.

[4] = system: Co6044 (human colon carcinoma); test: Antitumour activity in human colon cancer xenograft Co6044, IP treatment; conditions: for antitumor effect: IP every third day for five times, ester 40 mg/kg, gemcitabine 120 mg/kg; for Toxic deaths (d): 8 mice
Description: (§2) Treatment started when the tumours reached a mean volume of 100 mm^3.

[5] = system: Colon 6044 (human colon carcinoma); test: Antitumour activity in Co6044 after oral administration (Table 3); conditions: for BWC D13 / Toxic deaths (d) / Optimum T/C (on day): Oral, Q3 × 5
[6] = system: Colon 5776 (human colon carcinoma); conditions: mouse, in vivo, ip, 120 mg/kg
Description: as §1

[7] = system: Co6044 (human colon carcinoma); conditions: mouse, in vivo, ip, 120 mg/kg
Description: as §2

[8] = system: Colon 6044 (human colon carcinoma); conditions: mouse, in vivo, po
[9] = IP, 40 mg/kg, D8, 11, 14, 17, 20
[10] = IP, 120 mg/kg, D8, 11, 14, 17, 20

CCCCCCCC/C=C/CCCCCCCC(=O)OC[C@H]1O[C@@H](n2ccc(N)nc2=O)C(F)(F)[C@@H]1O [Elaidic acid (5′)-gemcitabine ester, elaidic acid (5′)-gemcitabine ester]
BWC ([1]; 5 mg/kg, D7-11): −3%
Toxic deaths (d) ([1]; 5 mg/kg, D7-11): 0
Optimum T/C (on day) ([1]; 5 mg/kg, D7-11, on day 28): 10 (28)* %
BWC ([1]; 10 mg/kg, D7, 10, 13, 16, 19): −1%
Toxic deaths (d) ([1]; 10 mg/kg, D7, 10, 13, 16, 19): 0
Optimum T/C (on day) ([1]; 10 mg/kg, D7, 10, 13, 16, 19, on day 24): 35 (24)* %
BWC ([1]; 10 mg/kg, D7-11): −5%
Toxic deaths (d) ([1]; 10 mg/kg, D7-11): 0
Optimum T/C (on day) ([1]; 10 mg/kg, D7-11, on day 17): 8 (17)* %
BWC ([1]; 15 mg/kg, D7, 10, 13, 16, 19): −1%
Toxic deaths (d) ([1]; 15 mg/kg, D7, 10, 13, 16, 19): 0
Optimum T/C (on day) ([1]; 15 mg/kg, D7, 10, 13, 16, 19, on day 24): 27 (24)* %
BWC ([1]; 20 mg/kg, D7, 10, 13, 16, 19): −3%
Toxic deaths (d) ([1]; 20 mg/kg, D7, 10, 13, 16, 19, death on day 17): 1 (17)
Optimum T/C (on day) ([1]; 20 mg/kg, D7, 10, 13, 16, 19, on day 24): 16 (24)* %
BWC ([1]; 50 mg/kg, D7, 14): 0%
Toxic deaths (d) ([1]; 50 mg/kg, D7, 14): 0
Optimum T/C (on day) ([1]; 50 mg/kg, D7, 14, on day 17): 22 (17)* %
BWC ([1]; 100 mg/kg, D7, 14): −4%
Toxic deaths (d) ([1]; 100 mg/kg, D7, 14, death on day 20): 1 (20)
Optimum T/C (on day) ([1]; 100 mg/kg, D7, 14, on day 24): 4 (24)* %
antitumour activity after oral administration ([1]; oral, all tested schedules): High dose dependent activity
significance of antitumour activity ([1]; oral, all the tested schedules): Significant antitumour activity
maximum tolerated dose [2]: ~40 mg/kg per injection
BWC (body weight change) ([3]; 40 mg/kg, D8, 11, 14, 17, 20): −4%
Optimum T/C (volume of treated tumour versus volume of control tumour) ([3]; 40 mg/kg, D8, 11, 14, 17, 20): 17* %
Toxic deaths (d) ([3]; 40 mg/kg): 0
antitumour activity in terms of reductions in tumour growth [3]: high antitumour activity
antitumor effect [4]: Excellent antitumor effect
Optimum T/C [4, 9]: 19* %
Toxic deaths (d) [4, 9]: 0
BWC D8-15 (body weight change) ([4]; IP, 40 mg/kg, D8, 11, 14, 17, 20, D8-15): −1
BWC D13 ([5]; 40 mg/kg): −7%
Toxic deaths (d) ([5]; 40 mg/kg, deaths on day 15): 2/8 (15)
Optimum T/C (on day) ([5]; 40 mg/kg, on day 27): 5 (27)* %
Optimum T/C (on day) ([5]; 60 mg/kg): Toxic
BWC D13 ([5]; 60 mg/kg): −9%
Toxic deaths (d) ([5]; 60 mg/kg, deaths on days 12-24): 6/8 (12-24)
Optimum T/C (on day) ([5]; 80 mg/kg): Toxic
BWC D13 ([5]; 80 mg/kg): −6%
Toxic deaths (d) ([5]; 80 mg/kg, deaths on days 16-22): 6/8 (16-22)
antitumour activity after oral administration ([5]; oral, 40 mg/kg): highly active
tolerability after oral administration ([5]; oral, 40 mg/kg): tolerable

Nc1ccn([C@@H]2O[C@H](CO)[C@@H](O)C2(F)F)c(=O)n1 [Gemcitabine, 2′,2′-difluorodeoxycytidine, reference compound]
BWC (body weight change) [6]: −5%
maximum tolerated dose [2]: approximately 120 mg/kg per injection
BWC D8-15 (body weight change) [7]: −3
Optimum T/C (volume of treated tumour versus volume of control tumour) ([3]; 120 mg/kg, D8, 11, 14, 17, 20): 17* %
Toxic deaths (d) ([3]; 120 mg/kg, death on day 18): 1 (18)
antitumour activity in terms of reductions in tumour growth [3]: high antitumour activity
BWC D13 ([8]; 120 mg/kg): −16%
BWC D13 ([8]; 180 mg/kg): −22%
BWC D13 ([8]; 240 mg/kg): −21%
antitumor effect [4]: Excellent antitumor effect
Optimum T/C [4, 10]: 15* %
Toxic deaths (d) [4, 10]: 0
